The results in this text go back to patent publication US20250002448A1, “ALLOSTERIC MODULATORS OF NICOTINIC ACETYLCHOLINE RECEPTORS” (MERCK SHARP & DOHME LLC, priority 2021, published 2025).

Read-outs that look alike come from different tables or passages of the source.

For this assay, the target named is T1, human a7 nAChR (Homo sapiens, UniProt P36544).
T1 construct: catalogue number not given
Put plainly: automated patch-clamp electrophysiology functional assay (Assay A), IonFlux HT. It counts as cell-based. The settings on record: HEK cell line stably expressing human RIC-3 and human a7, whole-cell population patch, 40 μM acetylcholine. The protocol: The a7 nAChR positive allosteric modulator (PAM) activity of the present compounds may be tested using assays known in the art. The a7 nAChR PAMs described herein have activities in an automated patch-clamp electrophysiology functional assay as described in the examples. The assay was performed using the lonFlux HT in a whole-cell, population patch configuration. See Golden et al. Assay Drug Dev. Technol. (2011) 9:608-619. The compounds were assessed for their ability to modulate the function of the human a7 nAChR stably expressed in a HEK cell line both in the presence, and in the absence of the natural a7 agonist acetylcholine. By performing a series of such measurements at different concentrations, the effective concentration of the a7 nAChR PAMs (EC50) was determined. See Spencer et al. Assay Drug Dev. Technol. (2012) 10:313-324.
Direct activation of a7 (agonism), and potentiation of acetylcholine-evoked a7 currents was determined as follows:
Automated patch-clamp electrophysiology was performed using the IonFlux HT (Fluxion Biosciences Inc., San Francisco, CA) in the whole-cell, population patch configuration. Test compounds were assessed for their ability to modulate the function of the a7 nicotinic acetylcholine receptor both in the presence, and in the absence of the natural a7 agonist acetylcholine. A HEK cell line stably expressing both human RIC-3 and human a7 (PrecisION hnAChR a7/RIC-3. Eurofins Pharma, St. Charles, MO) was cultured in 175 cm^2 triple-layer tissue culture flasks to no more than 90% confluency in DMEM/F-12 growth media supplemented with 10% heat-inactivated fetal bovine serum, 1% non-essential amino acids. 0.625 μg/mL Puromycin, and 400 μg/mL Geneticin. Immediately prior to assay, cells were detached by first aspirating growth media, rinsing with Dulbecco's phosphate buffered saline, and then adding 10 mL of Accutase (Innovative Cell Technologies, San Diego, CA) to the flask and then incubating at 37° C. for 5 minutes. Detached cells were then recovered by the addition of 40 mL of CHO-serum-free media supplemented with 25 mM HEPES, and rocked gently in a 50 ml conical tube for 20 minutes prior to patch-clamp assay. After recovery, cells were pelleted by centrifugation at 1.000 RPM for 1 minute in a compact bench top centrifuge: recovery media was aspirated and cells were resuspended in external recording solution (150 mM NaCl, 5 mM KCl, 2 mM CaCl2), 1 mM MgCl2, 10 mM HEPES, 12 mM dextrose) to a density of 5.0×10^6 cells/mL. The cell suspension was added to the cell inlet wells on an IonFlux HT population patch plate which had previously been rinsed and primed with deionized H2O. Test compounds were serially diluted in DMSO and then resuspended to the final test concentration in external recording solution, with, or without 40 μM acetylcholine added to the external recording solution: test compounds were then transferred to the IonFlux HT population patch plate. Internal recording solution (110 mM TrisPO4, 28 mM TrisBase, 0.1 mM CaCl2), 2 mM MgCl2, 11 mM EGTA, 4 mM MgATP) was added to the internal recording solution inlet wells on the IonFlux HT patch plate previously loaded with cells and test compounds, and the plate loaded into the lonFlux HT instrument. A protocol was executed on the IonFlux HT to trap the cells, break into the cells, and establish the whole-cell recording configuration: cells were voltage-clamped at a holding potential of −60 mV for the duration of the experiment, all experiments were conducted at room temperature, and the IonFlux HT injection pressure was 8 psi for solution applications. Upon establishing the whole-cell configuration, external recording solution was perfused into the recording chambers for 120 seconds and then 40 μM acetylcholine was applied for 1 second and immediately washed off with external recording solution for 60 seconds. […]

T1 sequence (P36544 23-502): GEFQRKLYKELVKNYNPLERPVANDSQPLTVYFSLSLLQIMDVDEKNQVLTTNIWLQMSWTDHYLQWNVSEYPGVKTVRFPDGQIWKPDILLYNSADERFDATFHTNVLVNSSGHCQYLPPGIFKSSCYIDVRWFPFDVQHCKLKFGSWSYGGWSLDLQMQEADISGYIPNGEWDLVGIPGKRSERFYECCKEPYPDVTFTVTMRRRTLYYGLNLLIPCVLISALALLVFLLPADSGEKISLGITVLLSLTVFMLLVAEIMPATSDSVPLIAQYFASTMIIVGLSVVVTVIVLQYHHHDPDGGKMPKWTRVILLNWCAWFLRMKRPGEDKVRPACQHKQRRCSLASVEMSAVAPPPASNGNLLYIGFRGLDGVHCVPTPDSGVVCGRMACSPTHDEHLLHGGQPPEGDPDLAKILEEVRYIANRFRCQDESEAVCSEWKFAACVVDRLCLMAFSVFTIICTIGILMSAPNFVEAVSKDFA

As for `CCOc1ccc([C@H](COC)NC(=O)C2CC23CCc2ccccc23)cc1` (mixture of isomers) [Example 1, N-[(1R)-1-(4-Ethoxyphenyl)-2-Methoxy-Ethyl[-2′,3′-Dihydrospiro]Cyclopropane-1,1′-Indene]-2-Carboxamide, Mixture a], the EC50 was 4500 nM (read-out: a7 nAChR EC50) and 500 to 5000 nM (read-out: α7 nAChR Potency).

Consider `CCOc1ccc([C@H](COC)NC(=O)C2CC23CCc2ccccc23)cc1` (mixture of isomers) [Example 2, N-[(1R)-1-(4-Ethoxyphenyl)-2-Methoxy-Ethyl]-2′,3′-Dihydrospiro[Cyclopropane-1,1′-Indene]-2-Carboxamide, Mixture B], for which the EC50 by setting is: (read-out: a7 nAChR EC50) 420 nM; (read-out: α7 nAChR Potency) 100 to 500 nM. In the same order, the values of `O=C(NC1(c2ccc(F)cc2)COC1)C1CC12CCc1ccccc12` (racemic) [Example A1, N-[3-(4-Fluorophenyl)oxetan-3-yl]-2′, 3′-dihydrospiro[cyclopropane-1,1′-indene]-2-carboxamide] are 3200 nM and 500 to 5000 nM.

Turning to `COc1ccc(C2(NC(=O)[C@@H]3C[C@]34COc3ccc(F)cc34)CC2)cn1` (relative stereo) [Example A16, cis-5-Fluoro-N-[1-(6-methoxypyridin-3-yl)cyclopropyl]-2H-spiro[1-benzofuran-3,1′-cyclopropane]-2′-carboxamide], under “read-out: α7 nAChR Potency”, the EC50 fell in the range of 500 to 5000 nM. On to `CCOc1ccc([C@H](COC)NC(=O)C2CC23CCc2ccc(F)cc23)cc1` (single isomer, unassigned) [Example A2], for which the EC50 by setting is: (read-out: a7 nAChR EC50) 1600 nM; (read-out: α7 nAChR Potency) 500 to 5000 nM. On to `CCOc1ccc([C@H](COC)NC(=O)C2CC23CCc2ccc(F)cc23)cc1` (single isomer, unassigned) [Example A3], for which the EC50 (read-out: a7 nAChR EC50) came out at 700 nM and the EC50 (read-out: α7 nAChR Potency) lay within 500 to 5000 nM.

Take `CCOc1ccc([C@H](COC)NC(=O)C2CC23CCCc2ccccc23)cc1` (single isomer, unassigned) [Example B1]: the EC50 (read-out: a7 nAChR EC50) was determined as 740 nM and the EC50 (read-out: α7 nAChR Potency) lay within 500 to 5000 nM.

With `CCOc1ccc([C@H](COC)NC(=O)C2CC23CCc2cc(F)ccc23)cc1` (single isomer, unassigned; diastereomer b) [Example 4], the EC50 by setting is: (read-out: a7 nAChR EC50) 590 nM; (read-out: α7 nAChR Potency) 500 to 5000 nM. In the same order, the values of `CCOc1ccc([C@H](COC)NC(=O)C2CC23COc2ccc(F)cc23)cc1` (single isomer, unassigned; diastereomer d) [Example 5] are 480 nM and 100 to 500 nM. Regarding `CCOc1ccc([C@H](COC)NC(=O)C2CC23COc2ccc(F)cc23)cc1` (stereo in doubt) [Example A10, cis-N-[(1R)-1-(4-Ethoxyphenyl)-2-methoxyethyl]-5-fluoro-2H-spiro[I-benzofuran-3,1′-cyclopropane]-2′-carboxamide], the EC50 (read-out: α7 nAChR Potency) was 500 to 5000 nM. `CCOc1ccc([C@@H](NC(=O)C2CC23COc2ccc(F)cc23)C(F)F)cn1` (stereo in doubt) [Example A12, cis-N-[(1R)-1-(6-Ethoxypyridin-3-yl)-2,2-difluoroethyl]-5-fluoro-2H-spiro[1-benzofuran-3,1′-cyclopropane]-2′-carboxamide]: the EC50 by setting is: (read-out: a7 nAChR EC50) 3000 nM; (read-out: α7 nAChR Potency) 500 to 5000 nM. With `CCOc1ccc([C@H](CF)NC(=O)C2CC23COc2ccc(F)cc23)cn1` (stereo in doubt) [Example A13, cis-N-[(1R)-1-(6-Ethoxypyridin-3-yl)-2-fluoroethyl]-5-fluoro-2H-spiro[1-benzofuran-3,1′-cyclopropane]-2′-carboxamide], the EC50 by setting is: (read-out: a7 nAChR EC50) 790 nM; (read-out: α7 nAChR Potency) 500 to 5000 nM. For the molecule `O=C(N[C@@H](C(F)F)C1CCCCC1)C1CC12COc1ccc(F)cc12` (stereo in doubt) [Example A14, cis-N-[(1R)-1-Cyclohexyl-2,2-difluoroethyl]-5-fluoro-2H-spiro[1-benzofuran-3,1′-cyclopropane]-2′-carboxamide], the EC50 (read-out: α7 nAChR Potency) fell in the range of 500 to 5000 nM.

On to `O=C(N[C@@H](CO)C1CCCCC1)C1CC12COc1ccc(F)cc12` (stereo in doubt) [Example A15, cis-N-[ (1R)-1-Cyclohexyl-2-hydroxyethyl]-5-fluoro-2H-spiro[1-benzofuran-3,1′-cyclopropane]-2′-carboxamide], for which the EC50 by setting is: (read-out: a7 nAChR EC50) 770 nM; (read-out: α7 nAChR Potency) 500 to 5000 nM.

In the case of `CCOc1ccc([C@H](COC)NC(=O)[C@@H]2C[C@]23CCc2ccccc23)cc1` [Example 3, (1R,2R)-N-[ (1R)-1-(4-Ethoxyphenyl)-2-Methoxy-Ethyl]-2′,3′-Dihydrospiro[Cyclopropane-1,1′-Indene]-2-Carboxamide], the EC50 is, setting by setting: (read-out: a7 nAChR EC50) 690 nM; (read-out: α7 nAChR Potency) 500 to 5000 nM. In the same order, the values of `O=C(N[C@@H](CO)C1CCCCC1)C1CC12CCc1ccc(F)cc12` (stereo partly drawn) [Example A4, N-[(1R)-1-Cyclohexyl-2-hydroxyethyl]-6′-fluoro-2′, 3′-dihydrospiro[cyclopropane-1,1′-indene]-2-carboxamide] are 1200 nM and 500 to 5000 nM. In the case of `CCOc1ccc([C@H](CO)NC(=O)C2CC23CCc2ccc(F)cc23)cn1` (stereo partly drawn) [Example A5, N-[(1R)-1-(6-Ethoxypyridin-3-yl)-2-hydroxyethyl]-6′-fluoro-2′, 3′-dihydrospiro[cyclopropane-1,1′-indene]-2-carboxamide], the EC50 (read-out: a7 nAChR EC50) stood at 1400 nM and the EC50 (read-out: α7 nAChR Potency) was 500 to 5000 nM. Regarding `O=C(NC1(c2ccc(F)cc2)COC1)C1CC12CCc1ccc(F)cc12` (centres unmarked) [Example A6], the EC50 (read-out: α7 nAChR Potency) fell in the range of 500 to 5000 nM. Still for that read-out and setting: the figure for `O=C(N[C@@H](C(F)F)C1CCCCC1)C1CC12CCc1ccc(F)cc12` (stereo partly drawn) [Example A7, N-[(1R)-1-Cyclohexyl-2,2-difluoroethyl]-6′-fluoro-2′, 3′-dihydrospiro[cyclopropane-1,1′-indene]-2-carboxamide] is 500 to 5000 nM. Take `O=C(N[C@@H](CO)C1CCCCC1)C1CC12COc1ccccc12` (some centres unmarked) [Example A8]: the EC50 is 630 nM (read-out: a7 nAChR EC50) and 500 to 5000 nM (read-out: α7 nAChR Potency). As for `O=C(NC1(c2ccc(F)cc2)COC1)C1CC12COc1ccccc12` (centres unmarked) [Example A9, N-[3-(4-Fluorophenyl)oxetan-3-yl]-2H-spiro[1-benzofuran-3,1′-cyclopropane]-2′-carboxamide], the EC50 runs as follows: (read-out: a7 nAChR EC50) 1100 nM; (read-out: α7 nAChR Potency) 500 to 5000 nM.

As for `CCOc1ccc(C(CO)NC(=O)C2CC23COc2ccc(F)cc23)cn1` [Example A11, cis-N-[ (1R)-1-(6-Ethoxypyridin-3-yl)-2-hydroxyethyl]-5-fluoro-2H-spiro[1-benzofuran-3,1′-cyclopropane]-2′-carboxamide], the EC50 runs as follows: (read-out: a7 nAChR EC50) 5800 nM; (read-out: α7 nAChR Potency) 5000 to 50000 nM.

Take `COc1cc(C2(NC(=O)C3CC34COc3ccc(F)cc34)CC2)ccn1` (stereo not drawn) [Example A17, cis-S-Fluoro-N-[1-(2-methoxypyridin-4-vl)cyclopropyl]-2H-spiro[1-benzofuran-3,1′-cyclopropane]-2′-carboxamide]: the EC50 (read-out: a7 nAChR EC50) came out at 2300 nM and the EC50 (read-out: α7 nAChR Potency) fell in the range of 500 to 5000 nM.
